Laboratory results: patent US5134073A, “Microbiologically produced N-acetyl-2,3-didehydroleucine acylase” (Degussa Aktiengesellschaft, priority 1989, dated 1992)
“And” between values parts separate entries of the source, which are not always exact repeats. Equal values may be shown once. Read-outs that look alike come from different tables or passages of the source. Where a SMILES comes first, the peptide text is derived from it.

Columns and labels:
[1] = tested on: N-acetyldehydroleucine acylase; experiment: Hydrolysis of other compounds by the acylase (TLC / amino acid analyzer); type: biochemical, Zoogloea ramigera; conditions: for rel. activity (%): 50 mM test substrate, 0.1 M tris/HCl pH 9, 25° C., hydrolysis rate with N-acetyldehydroleucine = 100%
Procedure: A qualitative check was performed for 81 compounds to see whether they are accepted as substrate by the acylase. The test batches contained:
After 16 and 40 hours incubation at 25° C., specimens were taken from the batches, most of which specimens were analyzed in comparison to substrate standards by means of thin-layer chromatography (70% (v/v) ethanol as mobile solvent). The detection took place with ninhydrin spray reagent. A few specimens were tested in addition or alternatively with the amino acid analyzer.
The amino acids produced from the amino acid amides by means of the action of acylase were detected quantitatively with the amino acid analyzer.

[2] = tested on: N-acetyldehydroleucine acylase; experiment: Influence of additive substances on the splitting of N-acetyldehydroleucine under standard conditions; type: biochemical, Zoogloea ramigera
Procedure: The mixing together of the batches, their storage and the taking of specimens took place under sterile conditions. The standard conditions for the enzyme test were:
20 mM N-Acetyldehydroleucine

Zoogloea ramigera ABI 1 = experiment: Induction of N-acetyldehydroleucine acylase in agitated cultures, changing of the inductor; type: cell-based; conditions: inductor 3 g/l, agitated culture, pH 7
Procedure: All raw extracts were tested at least with N-acetyldehydroleucine and N-acetyldehydroisoleucine but, in most cases, also with N-acetyldehydrovaline. […] The enzymatic reaction was stopped in the batches incubated at 30° C. by adding 0.25 ml color reagent (1 g/l 2,4-dinitrophenyl hydrazine in 2 N HCl). After further incubation at 30° C. for 10 minutes with N-acetyldehydroleucine as substrate or 25 minutes with the isoleucine or valine derivative, 1.5 ml 2,5 N NaOH was added.
The keto acid released by the enzymatic hydrolysis forms, together with the 2,4-dinitrophenyl hydrazine, a Schiff's base colored red in the alkaline whose absorption was measured in a spectral photometer at 442 nm against a batch without N-acetyldehydroamino acid (=enzyme blank). A blank reading was deducted from these extinction values which blank reading is obtained if the extinction value of a batch only with buffer (=buffer blank) is deducted from that of a batch with buffer and N-acetyldehydroamino acid but without raw extract (=substrate blank). The concentration of the product produced was determined with a calibrated reference for the corresponding keto acid. The enzyme activity is indicated in international units. One unit (U) corresponds to an amount of 1 μmole released keto acid per minute.
Different substances were added in a concentration of 3 g/l as inductors into agitated cultures with a medium of mineral salt solution (cf. Example 1) with 0.5 g/l yeast extract and 0.5 g/l peptone at pH 7. The technology for agitated cultures is described in Example 1 a).

ADL acylase = experiment: Stability of the acylase in the presence of different anions; type: physicochemical, Zoogloea ramigera; conditions: sodium salt 0.5 M in 50 mM glycine pH 11, 20° to 25° C., raw extract; 500000 µM
Procedure: The influence of different anions on the stability of ADL acylase was investigated. Raw extract which had been compounded with glycerin to 43.5% (w/v) was diluted 1 : 10 with 0.5 molar solutions of various sodium salts in 50 mM glycine (pH 11) and stored at room temperature (20° to 25° C.). Specimens were taken from time-to-time and their enzymatic activity measured under standard conditions, as described in Example 8a).

[3] = tested on: N-acetyldehydroleucine acylase; experiment: Acylase activity versus concentration of N-acetyldehydroamino acids (kinetic data); type: biochemical, Zoogloea ramigera; conditions: glycine, 0.1 M, pH 9, 30° C.
Procedure: The activity of the acylase was determined under standard conditions (cf. Example 8a)) with various N-acetyldehydroamino acids in concentrations of 0.1 to 300 mM. A second series of measurements with N-acetyldehydroleucinein the above-indicated concentration range was placed in 0.1 M tris/phosphoric acid buffer.
Reaction conditions: 0.1 M glycine, pH 9, 30° C.
Adaptation to the equation v = Vmax. · S/(KM + S +

Compound	rel. activity (%) [1]	% Residual activity ([2]; inhibitor 1 mM)	% Residual activity ([2]; inhibitor 10 mM)	also measured
C[C@H](N)C(=O)NCC(=O)O [L-alanyl glycine] (H-Ala-Gly-OH)	0%			
OCCS [MeSH, mercaptoethanol]		93%	99%	% Residual activity ([2]; inhibitor 100 mM): 81%
CC(C)C[C@@H](N)C(N)=O [D-leucine amide]	3.82%			Substrate specificity: hydrolysis by the acylase [1]: hydrolyzes
CC(=O)N[C@@H](CC(C)C)C(=O)O [Ac-L-leucine, N-acetyl-L-leucine]				Acylase activity after 60 hours of incubation as a function of the inductor (Zoogloea ramigera ABI 1): 0.018 U/mg
CC(=O)N[C@@H](Cc1ccccc1)C(=O)O [N-acetyl-L-phenylalanine]	0%			
CC(=O)N[C@H](C(=O)O)C(C)C [N-acetyl valine]				Substrate specificity: hydrolysis by the acylase [1]: not
N[C@@H](Cc1c[nH]c2ccccc12)C(=O)NCC(=O)O [L-tryptophyl glycine] (H-Trp-Gly-OH)	0%			
NC(=O)[C@H](N)Cc1c[nH]c2ccccc12 [D-tryptophane amide]				Substrate specificity: hydrolysis by the acylase [1]: hydrolyzes
NC(=O)[C@@H](N)Cc1c[nH]c2ccccc12 [tryptophane amide]				Substrate specificity: hydrolysis by the acylase [1]: split with a reaction rate on the order like that achieved with N-acetyldehydroamino acids
C[C@H](N)C(=O)N[C@@H](Cc1ccccc1)C(N)=O [L-alanyl-L-phenylalanine amide]	0%			
C[C@@H](N)C(N)=O [D-alanine amide]	0.46%			
c1ccc(-c2ccccn2)nc1 [Bipyridine]		91%	70%	
CSCC[C@H](N)C(N)=O [L-methionine amide]	4.69%			Substrate specificity: hydrolysis by the acylase [1]: hydrolyzes
Phosphate				% Residual activity after 3 days (ADL acylase): 96%; % Residual activity after 6 days (ADL acylase): 105%; % Residual activity after 21 days (ADL acylase): 27%
NNC(N)=O [Semicarbazide]		113%	93%	
NC(=O)[C@@H](N)Cc1c[nH]c2ccccc12 [L-tryptophane amide]	20.4%			Substrate specificity: hydrolysis by the acylase [1]: hydrolyzes
CNC(CC(C)C)C(=O)O (racemic) [N-methyl-D,L-leucine]	0%			
C=C(NC(C)=O)C(=O)O [ADA, 2-acetylamino acrylic acid]				Substrate specificity: hydrolysis by the acylase [1]: hydrolyzes; % Vmax [3]: 90%; Km [3]: 6.68 mM
CC(=O)NC(Cc1ccccc1)C(=O)O (racemic) [Ac-D,L-phenylalanine]				Acylase activity after 60 hours of incubation as a function of the inductor (Zoogloea ramigera ABI 1): 0.031 U/mg
N[C@@H](CCC(=O)N[C@@H](CS)C(=O)NCC(=O)O)C(=O)O [Glutathione reduced]				% Residual activity [2]: 95%

Compound	rel. activity (%) [1]	% Residual activity ([2]; inhibitor 1 mM)	% Residual activity ([2]; inhibitor 10 mM)	also measured
O=S(=O)(F)Cc1ccccc1 [PMSF, phenylmethane sulfonyl fluoride]				% Residual activity ([2]; inhibitor 0.0001 mM): 10%; % Residual activity ([2]; inhibitor 0.01 mM): 0%; Inhibition of the acylase ([2]; phenylmethane sulfonyl fluoride still in micromolar concentration): sharply inhibit; Influence of inhibitors on the acylase ([2]; phenylmethane sulfonylfluoride: 0.001 mM): exert an inhibitory action
[Cl-].[Cl-].[Co+2] [CoCl2]		91%	85%	
O=C(O)CN(CCN(CC(=O)O)CC(=O)O)CC(=O)O [EDTA]				% Residual activity [2]: 95%
N=C(N)c1ccc(N)cc1 [pABA, paraaminobenzamidine]			89%	% Residual activity ([2]; inhibitor 100 mM): 54%; % Residual activity ([2]; inhibitor 200 mM): 0%
[Cl-].[Cl-].[Zn+2] [ZnCl2]		95%	82%	
O[C@H](CS)[C@H](O)CS (racemic) [Dithiothreitol]		103%	58%	
NC(=O)N[C@@H](Cc1ccccc1)C(=O)O [N-carbamoyl-L-phenylalanine]	0%			
C[C@H](N)C(N)=O [L-alanine amide]	0.35%			
CC(C)[C@H](NC(N)=O)C(=O)O [N-carbamoyl-L-valine]	0%			
CC(=O)NC(Cc1ccc(O)cc1)C(=O)O (racemic) [Ac-D,L-tyrosine]				Acylase activity after 60 hours of incubation as a function of the inductor (Zoogloea ramigera ABI 1): 0.011 U/mg
CC(=O)N[C@@H](C)C(=O)N[C@H](C(=O)O)C(C)C [N-acetyl-L-alanyl-L-valine] (Ac-Ala-Val-OH)	0%			
NC(=O)CI [iodine acetamide]		104%	74%	
CN[C@@H](CCC(=O)O)C(=O)O [N-methyl-L-glutamic acid]	0%			
O=C(O)c1cc[c]([Hg][OH])cc1 [pCMB, parahydroxy mercury benzoate]		104%	98%	
CC(=O)NC(CC(C)C)C(=O)O (racemic) [N-acetyl-D,L-leucine]	0%			
COC(=O)NC(CC(C)C)C(=O)O (racemic) [N-methoxycarbonyl-D,L-leucine]	0%			
c1cnc2c(c1)ccc1cccnc12 [Phenanthroline]		94%	52%	
O=CO [Formate]				% Residual activity after 3 days (ADL acylase): 76%; % Residual activity after 6 days (ADL acylase): 63%; % Residual activity after 21 days (ADL acylase): 2%
COC(=O)NC(C(=O)O)C(C)C (racemic) [N-methoxycarbonyl-D,L-valine]	0%			
[N-]=[N+]=[N-].[Na+] [NaN3]		105%	103%	

Compound	rel. activity (%) [1]	% Residual activity ([2]; inhibitor 1 mM)	% Residual activity ([2]; inhibitor 10 mM)	also measured
CC(=O)N[C@@H](CC(C)C)C(=O)O [N-acetyl leucine]				Substrate specificity: hydrolysis by the acylase [1]: not
O=C(O)c1cc[c]([Hg][OH])cc1 [pOHMB, parahydroxy mercuric benzoate]		93%	91%	
CC(C)C[C@H](N)C(=O)NCC(=O)O [L-leucyl glycine] (H-Leu-Gly-OH)	0%			
CC(C)C[C@H](NC(=O)CN)C(=O)O [Glycyl-L-leucine]	0%			
CC(C)CC(NC(=O)c1ccccc1)C(=O)O (racemic) [N-benzoyl-D,L-leucine]	0%			
CN(C)C(=O)Oc1cccc([N+](C)(C)C)c1 [Neostigmine]		102%	82%	% Residual activity ([2]; inhibitor 100 mM): 0%
[Cl][Hg][Cl] [HgCl2]		84%	70%	
CC(=O)O [Acetate]				% Residual activity after 3 days (ADL acylase): 86%; % Residual activity after 6 days (ADL acylase): 81%; % Residual activity after 21 days (ADL acylase): 6%
O=C(O)CC(O)(CC(=O)O)C(=O)O [Citrate]		99%	84%	
O=C(O)CI [iodine acetate]				% Residual activity [2]: 76% and 49%
[Cl-].[Cl-].[Mg+2] [MgCl2]		95%	88%	
O=S(=O)([O-])[O-].[Cu+2] [CuSO4]		87%	83%	
CC(=O)NCC(=O)O [N-acetyl glycine]	0%			
O=S(=O)(O)O [Sulfate]				% Residual activity after 3 days (ADL acylase): 89%; % Residual activity after 6 days (ADL acylase): 94%; % Residual activity after 21 days (ADL acylase): 15%
[Cl][Mn][Cl] [MnCl2]		99%	87%	
CC(C)C[C@H](NC(=O)[C@H](C)N)C(=O)O [L-alanyl-L-leucine] (H-Ala-Leu-OH)	0%			
CC(C)C[C@H](N)C(N)=O [L-leucine amide]	6.80%			Substrate specificity: hydrolysis by the acylase [1]: hydrolyzes
N[C@@H]1CON=C1O [Cycloserine]		111%	105%	
[Ca+2].[Cl-].[Cl-] [CaCl2]			93%	
Cl [Chloride]				% Residual activity after 3 days (ADL acylase): 35%; % Residual activity after 6 days (ADL acylase): 0%; % Residual activity after 21 days (ADL acylase): 0%
